Target: T1, ATM (Homo sapiens, UniProt Q13315)
T1 construct: detecting phosphorylation of Chk2 in a human non-small cell lung cancer cell line NCI-H460 (ATCC company); host or cells: NCI-H460 human non-small cell lung cancer cells
Test: ATM inhibition test (phosphorylation of Chk2 generated by ionizing radiation, AlphaScreen SureFire)
Format: cell-based
Details: phosphorylated Chk2 in NCI-H460 cells, ionizing radiation 8Gy, 1 hour after test compound treatment; read-out: ATM inhibitory activity
How it was run: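 Human NCI-H460 lung cancer cells were treated with compound for 1 h, then irradiated at 8Gy and incubated 1 h at 37° C. Phospho-Chk2 was quantified by AlphaScreen SureFire; inhibition % was normalised between irradiated untreated and non-irradiated untreated wells.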

T1 sequence (Q13315 whole entry): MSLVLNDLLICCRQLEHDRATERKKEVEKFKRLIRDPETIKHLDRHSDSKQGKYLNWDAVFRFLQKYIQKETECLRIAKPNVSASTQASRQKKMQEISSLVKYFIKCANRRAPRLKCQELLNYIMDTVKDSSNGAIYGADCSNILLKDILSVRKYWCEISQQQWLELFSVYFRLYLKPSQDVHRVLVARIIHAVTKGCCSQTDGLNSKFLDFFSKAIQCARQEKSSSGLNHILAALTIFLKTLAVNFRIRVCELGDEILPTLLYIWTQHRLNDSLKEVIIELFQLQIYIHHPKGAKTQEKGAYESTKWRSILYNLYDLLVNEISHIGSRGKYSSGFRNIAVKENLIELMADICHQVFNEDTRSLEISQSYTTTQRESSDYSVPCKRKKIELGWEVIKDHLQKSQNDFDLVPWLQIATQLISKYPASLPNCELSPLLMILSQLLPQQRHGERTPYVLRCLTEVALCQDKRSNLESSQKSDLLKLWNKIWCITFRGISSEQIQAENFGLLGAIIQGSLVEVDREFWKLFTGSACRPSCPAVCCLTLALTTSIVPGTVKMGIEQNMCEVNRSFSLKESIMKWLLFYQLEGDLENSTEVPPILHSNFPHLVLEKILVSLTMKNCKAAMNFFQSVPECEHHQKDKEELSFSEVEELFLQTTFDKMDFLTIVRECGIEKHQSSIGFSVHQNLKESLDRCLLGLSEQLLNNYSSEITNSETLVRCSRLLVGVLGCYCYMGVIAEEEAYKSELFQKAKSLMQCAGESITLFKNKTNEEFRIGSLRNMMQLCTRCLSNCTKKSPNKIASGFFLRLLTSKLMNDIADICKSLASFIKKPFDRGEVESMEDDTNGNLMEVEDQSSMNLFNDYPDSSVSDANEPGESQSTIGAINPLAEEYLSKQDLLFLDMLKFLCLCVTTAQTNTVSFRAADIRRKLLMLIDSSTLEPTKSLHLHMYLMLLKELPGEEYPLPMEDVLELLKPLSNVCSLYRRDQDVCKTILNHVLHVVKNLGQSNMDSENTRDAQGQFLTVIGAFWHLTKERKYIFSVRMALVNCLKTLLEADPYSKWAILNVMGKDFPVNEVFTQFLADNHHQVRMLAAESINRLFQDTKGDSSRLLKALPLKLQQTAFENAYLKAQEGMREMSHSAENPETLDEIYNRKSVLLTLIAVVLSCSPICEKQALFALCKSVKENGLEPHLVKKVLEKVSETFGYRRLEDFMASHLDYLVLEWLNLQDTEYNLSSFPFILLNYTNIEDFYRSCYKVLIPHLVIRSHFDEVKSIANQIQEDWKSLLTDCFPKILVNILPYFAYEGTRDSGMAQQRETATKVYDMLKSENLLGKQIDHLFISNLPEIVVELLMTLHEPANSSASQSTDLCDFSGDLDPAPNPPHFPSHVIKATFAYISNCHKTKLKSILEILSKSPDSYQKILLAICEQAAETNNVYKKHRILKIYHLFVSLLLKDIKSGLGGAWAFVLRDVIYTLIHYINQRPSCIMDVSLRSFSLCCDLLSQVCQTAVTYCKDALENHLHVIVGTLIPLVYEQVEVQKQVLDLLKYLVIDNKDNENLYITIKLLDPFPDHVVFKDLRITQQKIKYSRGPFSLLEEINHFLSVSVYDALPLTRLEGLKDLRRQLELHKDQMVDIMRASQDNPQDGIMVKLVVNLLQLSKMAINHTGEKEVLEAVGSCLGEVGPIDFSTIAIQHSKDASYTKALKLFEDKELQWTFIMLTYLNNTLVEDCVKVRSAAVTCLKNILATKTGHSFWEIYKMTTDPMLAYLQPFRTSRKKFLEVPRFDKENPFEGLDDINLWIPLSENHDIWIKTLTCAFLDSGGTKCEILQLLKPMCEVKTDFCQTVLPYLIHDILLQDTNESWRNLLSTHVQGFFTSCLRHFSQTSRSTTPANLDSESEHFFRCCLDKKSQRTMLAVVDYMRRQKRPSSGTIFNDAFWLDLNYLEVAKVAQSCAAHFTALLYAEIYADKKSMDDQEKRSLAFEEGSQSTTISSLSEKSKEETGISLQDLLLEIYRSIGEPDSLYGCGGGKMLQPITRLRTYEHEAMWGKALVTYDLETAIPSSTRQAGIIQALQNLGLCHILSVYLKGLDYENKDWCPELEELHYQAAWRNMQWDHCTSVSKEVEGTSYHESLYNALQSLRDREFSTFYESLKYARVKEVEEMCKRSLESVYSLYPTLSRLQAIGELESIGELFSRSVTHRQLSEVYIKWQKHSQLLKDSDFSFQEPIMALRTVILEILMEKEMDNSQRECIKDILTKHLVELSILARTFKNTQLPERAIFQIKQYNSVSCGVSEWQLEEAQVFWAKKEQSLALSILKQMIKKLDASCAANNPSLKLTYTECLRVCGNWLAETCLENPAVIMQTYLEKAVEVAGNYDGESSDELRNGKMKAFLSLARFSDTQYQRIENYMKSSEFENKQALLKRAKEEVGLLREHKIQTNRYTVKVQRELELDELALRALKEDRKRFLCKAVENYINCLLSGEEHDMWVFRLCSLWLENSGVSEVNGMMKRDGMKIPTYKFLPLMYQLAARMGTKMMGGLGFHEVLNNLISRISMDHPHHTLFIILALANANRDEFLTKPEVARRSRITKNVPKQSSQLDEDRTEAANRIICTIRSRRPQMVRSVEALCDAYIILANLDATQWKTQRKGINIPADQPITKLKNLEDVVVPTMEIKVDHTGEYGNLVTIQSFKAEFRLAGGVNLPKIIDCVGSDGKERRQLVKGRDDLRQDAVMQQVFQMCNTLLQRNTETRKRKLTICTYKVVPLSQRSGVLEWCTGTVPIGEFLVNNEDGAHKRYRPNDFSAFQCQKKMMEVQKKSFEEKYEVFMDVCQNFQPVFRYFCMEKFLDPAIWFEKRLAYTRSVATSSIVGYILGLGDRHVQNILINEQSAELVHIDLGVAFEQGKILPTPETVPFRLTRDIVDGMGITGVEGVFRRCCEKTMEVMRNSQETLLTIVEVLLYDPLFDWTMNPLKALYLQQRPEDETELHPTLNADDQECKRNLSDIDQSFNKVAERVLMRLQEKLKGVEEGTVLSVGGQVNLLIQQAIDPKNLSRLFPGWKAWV

Cc1ccc(C(CCN(C)CCO)Nc2ccc3c(c2)Sc2cccc(-c4cc(N5CCOCC5)cc(=O)[nH]4)c2S3)nc1 (single isomer, unassigned) [Example 10-4-1, 6-(7-((3-((2-Hydroxyethyl)(methyl)amino)-1-(5-methylpyridin-2-yl)propyl)amino)thianthren-1-yl)-4-morpholinopyridin-2(1H)-one]
IC50: < 100 nM

O=c1cc(N2CCOCC2)cc(-c2cccc3c2Oc2ccc(NCc4cncc(C5CC5)c4)cc2S3)[nH]1 [Example 4-8-7, 6-(8-(((5-Cyclopropylpyridin-3-yl)methyl)amino)phenoxathiin-4-yl)-4-morpholino pyridin-2(1H)-one]
IC50: 100 to 500 nM

Cc1cnc(C(CCN(C)CCF)Nc2ccc3c(c2)Sc2cccc(-c4cc(N5CCOCC5)cc(=O)[nH]4)c2S3)cn1 (single isomer, unassigned) [Example 10-3-6, 6-(7-((3-((2-Fluoroethyl) (methyl)amino)-1-(5-methylpyrazin-2-yl)propyl)amino)thianthren-1-yl)-4-morpholino pyridin-2(1H)-onc]
IC50: < 100 nM

O=c1cc(N2CCOCC2)cc(-c2cccc3c2Sc2ccc(NC(CN4CCCCC4)CN4CCOCC4)cc2S3)[nH]1 (stereo not shown) [Example 1-39, 4-morpholino-6-(7-((1-morpholino-3-(piperidin-1-yl)propan-2-yl)amino)thianthren-1-yl)pyridin-2(1H)-one]
IC50: 100 to 500 nM

Cc1cccc(C(CCN2CCCCC2)Nc2ccc3c(c2)Sc2cccc(-c4cc(N5CCOCC5)cc(=O)[nH]4)c2S3)n1 (stereo not shown) [Example 1-34-3, 6-(7-((1-(6-Methylpyridin-2-yl)-3-(piperidin-1-yl)propyl)amino)thianthren-1-yl)-4-morpholino pyridin-2(1H)-one]
IC50: < 100 nM

COc1nccc(C(C)Nc2ccc3c(c2)Cc2cccc(-c4cc(N5CCOCC5)cc(=O)[nH]4)c2O3)n1 (stereo not shown) [Example 2-14-63, 6-(7-((1-(2-Methoxypyrimidin-4-yl)ethyl)amino)-9H-xanthen-4-yl)-4-morpholino pyridin-2(1H)-one]
IC50: 100 to 500 nM

CNc1ncccc1CNc1ccc2c(c1)Sc1cccc(-c3cc(N4CCOCC4)cc(=O)[nH]3)c1S2 [Example 1-12-24, 6-(7-(((2-(Methylamino)pyridin-3-yl)methyl)amino)thianthren-1-yl)-4-morpholino pyridin-2(1H)-one]
IC50: 100 to 500 nM

O=c1cc(N2CCOCC2)cc(-c2cccc3c2Oc2ccc(NC4CCN(CCc5ccccc5)C4)cc2C3)[nH]1 (stereo not shown) [Example 2-19-7, 4-Morpholino-6-(7-((1-phenethylpyrrolidin-3-yl)amino)-9H-xanthen-4-yl)pyridin-2(1H)-one]
IC50: 100 to 500 nM

COc1cc(CNc2ccc3c(c2)Cc2cccc(-c4cc(N5CCOCC5)cc(=O)[nH]4)c2O3)ccn1 [Example 2-22-1, 6-(7-(((2-methoxypyridin-4-yl)methyl)amino)-9H-xanthen-4-yl)-4-morpholinopyridin-2(1H)-one]
IC50: 100 to 500 nM

Cc1ccnc(C(CN2CCOCC2)Nc2ccc3c(c2)Sc2cccc(-c4cc(N5CCOCC5)cc(=O)[nH]4)c2S3)n1 (stereo not shown) [Example 1-13-18, 6-(7-((1-(4-Methylpyrimidin-2-yl)-2-morpholinoethyl)amino)thianthren-1-yl)-4-morpholinopyridin-2(1H)-one]
IC50: 500 to 2000 nM

O=c1cc(N2CCOCC2)cc(-c2cccc3c2Oc2ccc(NCc4cncc(-n5cccn5)c4)cc2C3)[nH]1 [Example 2-2-55, 6-(7-(((5-(1H-Pyrazol-1-yl)pyridin-3-yl)methyl)amino)-9H-xanthen-4-yl)-4-morpholino pyridin-2 (1H)-one]
IC50: 100 to 500 nM

Cc1cccc(C(CNC(=O)OC(C)(C)C)Nc2ccc3c(c2)Cc2cccc(-c4cc(N5CCOCC5)cc(=O)[nH]4)c2O3)n1 (stereo not shown) [Example 2-14-46]
IC50: 100 to 500 nM

CC(Nc1ccc2c(c1)Cc1cccc(-c3cc(N4CCOCC4)cc(=O)[nH]3)c1O2)c1nccc(CF)n1 (stereo not shown) [Example 2-14-64, 6-(7-((1-(4-(Fluoromethyl)pyrimidin-2-yl)ethyl)amino)-9H-xanthen-4-yl)-4-morpholino pyridin-2(1H)-one]
IC50: 100 to 500 nM

CC1CC(Nc2ccc3c(c2)Cc2cccc(-c4cc(N5CCOCC5)cc(=O)[nH]4)c2O3)CCN1CCc1ccccc1 (stereo not shown) [Example 2-19-1, 6-(7-((2-Methyl-1-phenethylpiperidin-4-yl)amino)-9H-xanthen-4-yl)-4-morpholinopyridin-2(1H)-one]
IC50: 100 to 500 nM

Cc1ccnc(CN2CCC(Nc3ccc4c(c3)Cc3cccc(-c5cc(N6CCOCC6)cc(=O)[nH]5)c3O4)CC2)c1 [Example 2-28-19, 6-(7-((1-((4-Methylpyridin-2-yl)methyl)piperidin-4-yl)amino)-9H-xanthen-4-yl)-4-morpholino pyridin-2(1H)-one]
IC50: 100 to 500 nM

CC(CN1CC2(COC2)C1)Nc1ccc2c(c1)Sc1cccc(-c3cc(N4CCOCC4)cc(=O)[nH]3)c1S2 (stereo not shown) [Example 1-43-2, 6-(7-((1-(2-Oxa-6-azaspiro [3.3]heptan-6-yl)propan-2-yl)amino)thianthren-1-yl)-4-morpholino pyridin-2(1H)-one]
IC50: 100 to 500 nM

O=c1cc(N2CCOCC2)cc(-c2cccc3c2Oc2ccc(NCc4cnccc4Cl)cc2C3)[nH]1 [Example 2-14-4, 6-(7-(((4-Chloropyridin-3-yl)methyl)amino)-9H-xanthen-4-yl)-4-morpholino pyridin-2(1H)-one]
IC50: 100 to 500 nM

O=c1cc(N2CCOCC2)cc(-c2cccc3c2Oc2ccccc2S3)[nH]1 [Example 4-12, 4-Morpholino-6-(phenoxathiin-4-yl)pyridin-2(1H)-one]
IC50: 500 to 2000 nM

Cc1ccc(CNc2ccc3c(c2)Sc2cccc(-c4cc(N5CCOCC5)cc(=O)[nH]4)c2S3)s1 [Example 1-12-57, 6-(7-(((5-Methylthiophen-2-yl)methyl)amino)thianthren-1-yl)-4-morpholino pyridin-2 (1H)-one]
IC50: 100 to 500 nM

O=c1cc(N2CCOCC2)cc(-c2cccc3c2Oc2ccc(NCc4cnccc4Cl)cc2S3)[nH]1 [Example 4-4-18]
IC50: 100 to 500 nM

CCN(CC)CC(Nc1ccc2c(c1)Sc1cccc(-c3cc(N4CCOCC4)cc(=O)[nH]3)c1S2)c1ncc(C)cn1 (stereo not shown) [Example 1-12-106, 6-(7-((2-(Diethylamino)-1-(5-methylpyrimidin-2-yl)ethyl)amino)thianthren-1-yl)-4-morpholino pyridin-2(1H)-one]
IC50: 100 to 500 nM

CCOC(=O)CNc1ccc2c(c1)Sc1cccc(-c3cc(N4CCOCC4)cc(=O)[nH]3)c1S2 [Example 1-12-49, Ethyl 2-((6-(4-morpholino-6-oxo-1,6-dihydropyridin-2-yl)thianthren-2-yl)amino) acetate]
IC50: < 100 nM

Cc1nccc(CNc2ccc3c(c2)Cc2cccc(-c4cc(N5CCOCC5)cc(=O)[nH]4)c2O3)n1 [Example 2-14-68, 6-(7-(((2-Methylpyrimidin-4-yl)methyl)amino)-9H-xanthen-4-yl)-4-morpholino pyridin-2(1H)-one]
IC50: 500 to 2000 nM

O=c1cc(N2CCOCC2)cc(-c2cccc3c2Oc2ccc(NC4CCCN(CCc5ccccc5)C4)cc2C3)[nH]1 (stereo not shown) [Example 2-19-3, 4-Morpholino-6-(7-((1-phenethylpiperidin-3-yl)amino)-9H-xanthen-4-yl)pyridin-2(1H)-one]
IC50: 500 to 2000 nM

CCN1CCC(C(Nc2ccc3c(c2)Sc2cccc(-c4cc(N5CCOCC5)cc(=O)[nH]4)c2S3)c2ccc(C)cn2)CC1 (stereo not shown) [Example 1-56-1, 6-(7-(((1-ethylpiperidin-4-yl)(5-methylpyridin-2-yl)methyl)amino)thianthren-1-yl)-4-morpholinopyridin-2(1H)-one]
IC50: < 100 nM

COc1ncccc1CNc1ccc2c(c1)Cc1cccc(-c3cc(N4CCOCC4)cc(=O)[nH]3)c1O2 [Example 2-13-12, 6-(7-(((2-Methoxypyridin-3-yl)methyl)amino)-9H-xanthen-4-yl)-4-morpholino pyridin-2(1H)-one]
IC50: 100 to 500 nM

O=c1cc(N2CCOCC2)cc(-c2cccc3c2Oc2ccc(NC4CCN(Cc5cccnc5)CC4)cc2C3)[nH]1 [Example 2-9-2, 4-Morpholino-6-(7-((1-(pyridin-3-ylmethyl)piperidin-4-yl)amino)-9H-xanthen-4-yl)pyridin-2(1H)-one]
IC50: 100 to 500 nM

CN1CCC(Nc2ccc3c(c2)Cc2cccc(-c4cc(N5CCOCC5)cc(=O)[nH]4)c2O3)CC1 [Example 2-3-7, 6-(7-((1-Methylpiperidin-4-yl)amino)-9H-xanthen-4-yl)-4-morpholino pyridin-2(1H)-one]
IC50: 500 to 2000 nM

CCC(Nc1ccc2c(c1)Sc1cccc(-c3cc(N4CCOCC4)cc(=O)[nH]3)c1S2)[C@H](CC)N1CCOCC1 (stereo partly drawn) [Example 1-21-4, 4-Morpholino-6-(7-(((4S)-4-morpholinohexan-3-yl)amino)thianthren-1-yl) pyridin-2(1H)-one]
IC50: 100 to 500 nM

COc1cncc(CNc2ccc3c(c2)Cc2cccc(-c4nc(N5CCOCC5)cc(=O)[nH]4)c2O3)c1 [Example 2-52-2, 2-(7-(((5-Methoxypyridin-3-yl)methyl)amino)-9H-xanthen-4-yl)-6-morpholino pyrimidine-4(3H)-one]
IC50: 100 to 500 nM

O=c1cc(N2CCOCC2)cc(-c2cccc3c2Sc2ccc(NC(CO)CN4CCOCC4)cc2S3)[nH]1 (stereo not shown) [Example 1-37-2, 6-(7-((1-Hydroxy-3-morpholinopropan-2-yl)amino)thianthren-1-yl)-4-morpholino pyridin-2(1H)-one]
IC50: 100 to 500 nM

O=c1cc(N2CCOCC2)cc(-c2cccc3c2Oc2ccc(NCc4cscn4)cc2C3)[nH]1 [Example 2-14-36, 4-Morpholino-6-(7-((thiazol-4-ylmethyl)amino)-9H-xanthen-4-yl) pyridin-2(1H)-one]
IC50: 100 to 500 nM

O=c1cc(N2CCOCC2)cc(-c2cccc3c2Oc2ccc(NCc4cncc(-c5cccnc5)c4)cc2S3)[nH]1 [Example 4-4-10, 6-(8-(([3,3′-Bipyridin)-5-ylmethyl)amino)phenoxathiin-4-yl)-4-morpholino pyridin-2(1H)-one]
IC50: 100 to 500 nM

Cc1ccnc(C(CF)Nc2ccc3c(c2)Cc2cccc(-c4cc(N5CCOCC5)cc(=O)[nH]4)c2O3)n1 (stereo not shown) [Example 2-14-81, 6-(7-((2-Fluoro-1-(4-methylpyrimidin-2-yl)ethyl)amino)-9H-xanthen-4-yl)-4-morpholino pyridin-2(1H)-one]
IC50: 100 to 500 nM
